Measured values taken from PMC8070648, “Simultaneous Visualization of ^161Tb- and ^177Lu-Labeled Somatostatin Analogues Using Dual-Isotope SPECT Imaging” (Pharmaceutics, 2021).
Like-named read-outs stand apart in the source and are kept apart here.

Assay: Biodistribution in AR42J tumor-bearing nude mice
Format: in vivo
Details: female, CD-1 nude, mouse, iv, 1 nmol/mouse, total radioactivity, i.v. 5 MBq; for tissue uptake at 2 h: 2 h p.i.; for tissue uptake at 24 h: 24 h p.i.
Text: Five-week-old female CD-1 nude mice were purchased from Charles River Laboratories (Sulzfeld, Germany).

[1] = AR42J tumor, read-out: AR42J Tumor
[2] = femoral muscle, read-out: Muscle
[3] = intestines, read-out: Intestines

Compound: C[C@@H](O)[C@@H]1NC(=O)[C@H](CCCCN)NC(=O)[C@@H](Cc2c[nH]c3ccccc23)NC(=O)[C@H](Cc2ccc(O)cc2)NC(=O)[C@@H](NC(=O)[C@@H](Cc2ccccc2)NC(=O)CN2CCN(CC(=O)O)CCN(CC(=O)O)CCN(CC(=O)O)CC2)CSSC[C@@H](C(=O)N[C@H](CO)[C@@H](C)O)NC1=O [[^161Tb]Tb-DOTATOC, metal not drawn]
- tissue uptake at 2 h [1]: 8.2 ± 0.2 %ID/g
- tissue uptake at 24 h [1]: 3.8 ± 0.6 %ID/g
- tissue uptake at 2 h (adrenals, read-out: Adrenals): 0.25 ± 0.06 %ID/g
- tissue uptake at 24 h (adrenals, read-out: Adrenals): 0.23 ± 0.2 %ID/g
- tissue uptake at 2 h (blood, read-out: Blood): ≤ 0.1 %ID/g
- tissue uptake at 24 h (blood, read-out: Blood): ≤ 0.1 %ID/g
- tissue uptake at 2 h [2]: ≤ 0.1 %ID/g
- tissue uptake at 24 h [2]: ≤ 0.1 %ID/g
- tissue uptake at 2 h (femur, read-out: Femur): ≤ 0.1 %ID/g
- tissue uptake at 24 h (femur, read-out: Femur): ≤ 0.1 %ID/g
- tissue uptake at 2 h (heart, read-out: Heart): ≤ 0.1 %ID/g
- tissue uptake at 24 h (heart, read-out: Heart): ≤ 0.1 %ID/g
- tissue uptake at 2 h [3]: 0.21 ± 0.13 %ID/g
- tissue uptake at 24 h [3]: ≤ 0.1 %ID/g
- tissue uptake at 2 h (kidneys, read-out: Kidneys): 9.9 ± 1.4 %ID/g
- tissue uptake at 24 h (kidneys, read-out: Kidneys): 5.2 ± 0.6 %ID/g
- tissue uptake at 2 h (liver, read-out: Liver): 0.17 ± 0.01 %ID/g
- tissue uptake at 24 h (liver, read-out: Liver): ≤ 0.1 %ID/g
- tissue uptake at 2 h (lung, read-out: Lung): 0.27 ± 0.03 %ID/g
- tissue uptake at 24 h (lung, read-out: Lung): 0.11 ± 0.01 %ID/g
- tissue uptake at 2 h (pancreas, read-out: Pancreas): 0.71 ± 0.07 %ID/g
- tissue uptake at 24 h (pancreas, read-out: Pancreas): 0.18 ± 0.01 %ID/g
- tissue uptake at 2 h (spleen, read-out: Spleen): 0.11 ± 0.02 %ID/g
- tissue uptake at 24 h (spleen, read-out: Spleen): ≤ 0.1 %ID/g
- tissue uptake at 2 h (stomach, read-out: Stomach): 0.74 ± 0.38 %ID/g
- tissue uptake at 24 h (stomach, read-out: Stomach): 0.29 ± 0.11 %ID/g
